Assay [1] deals with human chronic myelogenous leukemia cell line (K562). Kind of assay: Cytotoxicity, MTT assay, K562. The class given is cell-based. The method, boiled down: (§1)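 Cells seeded 1 × 10^4/well for 24 h, then exposed to serial compound concentrations (50–0.01 µg/mL) for 24 h at 37 °C, 5% CO2; LO2, K562, HeLa, SGC7901 grown in 1640 medium with 10% FBS. MTT 4 h, formazan in DMSO, OD 570 nm; IC50 from triplicate viability versus untreated controls.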
(Tetrazolium dyes change colour on reduction, which living cells bring about.)

Assay [2] has as its system human acute mononuclear granulocyte leukemia (THP-1). Kind of assay: Cytotoxicity, MTT assay, THP-1. The class given is cell-based. The method, boiled down:
(§2)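 Cells in RPMI 1640 with 10% FBS were seeded at 1 × 10^4 cells/well for 24 h, then exposed for 24 h to compound at 0.01–50 µg/mL. MTT was added for 4 h at 37 °C, and formazan was dissolved in DMSO and read at 570 nm. IC50 came from triplicate viability relative to untreated controls.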

The test system of assay [3] is human carcinoma cell lines A549, SGC7901, HePG2, HeLa, K562, THP-1. Nature of the assay: Cytotoxicity, MTT assay, panel of human carcinoma cell lines (average / overall). The class given is cell-based. The settings on record: for IC50: Homo sapiens. The method, boiled down: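 IC50 values from triplicate MTT read-outs (570 nm, DMSO-dissolved formazan) relative to untreated controls with 0.1% DMSO. Compounds were tested from 0.01 to 50 µg/mL for 24 h at 37 °C on cells plated 24 h earlier at 1 × 10^4 cells/well. HePG2 grown in DMEM, others in 1640 medium, both with 10% FBS.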

In assay [4] the test system is human liver hepatocellular carcinoma cell line (Hepg2). Kind of assay: Cytotoxicity, MTT assay, HePG2. The class given is cell-based. In outline:
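Modified MTT assay: OD at 570 nm after 4 hours MTT incubation and DMSO solubilisation, giving viability relative to untreated cells and IC50 (triplicate). Compounds (0.01–50 µg/mL) applied 24 hours to HepG2 cells grown in DMEM with 10% FBS, pre-seeded 24 hours at 1 × 10^4 cells/well.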

Assay [5] has as its system human gastric adenocarcinoma cells (SGC7901). Nature of the assay: Cytotoxicity, MTT assay, SGC7901. The class given is cell-based. The method, boiled down:
as §1

Assay [6] deals with human normal heptical cell line (LO2). Nature of the assay: Cytotoxicity, MTT assay, non-malignant LO2. The class given is cell-based. The note with it: 24 hours, non-malignant cells. The method, boiled down:
as §1

The subject of a further assay is Bax. Kind of assay: Western blot, Bax expression. The class given is cell-based, human. The settings on record: HepG2, 3 h, 1.0, 2.0, 4.0 µM, vs negative control. The method, then:
The HepG2 cell lines were treated with different dose of by BAP 5c (1.0, 2.0, 4.0 µM, respectively) for 3 hours, then washed twice with PBS, and lysed in ice-cold modified RIPA buffer containing PMSF (RIPA:PMSF = 100:1; the ultimate density of PMSF is 1.0 mM). The lysates were kept for 30 minutes on the ice, and then centrifuged for 15 min at 12000 rpm/min at 4 °C and the supernatant was collected. The proteins were boiled at 95 °C at 5 min with loading buffer (the volume ratio of protein and the loading buffer is 4:1). Each 50 µg protein of cell lysates were separated by 10% SDS-PAGE gel electrophoresis. The proteins were then transferred onto polyvinylidene fluorides membrane. The membranes were probed with antibodies and visualised using an enhanced chemiluminescence (ECL) detection kit according to the manufacturer instruction.
(In general: A western blot detects proteins with antibodies after separation by electrophoresis.)

Assay [7] relates to human lung carcinoma cells (A549). Kind of assay: Cytotoxicity, MTT assay, A549. The class given is cell-based. The method, boiled down: as §2
[8] abbreviates: quotient of the IC50 values towards nonmalignant LO2 cells.

The IC50 is the point on the concentration scale where inhibition reaches its midpoint.

Where two headings read alike, the source gives them in different places. A value given as a limit tells only on which side of the number the result lay.

On to `O=C1/C(=C/c2cc(/N=C/c3ccc(O)c(O)c3O)ccc2F)CNC/C1=C\c1cc(/N=C/c2ccc(O)c(O)c2O)ccc1F` [5c], for which the half-maximal inhibitory concentration (IC50) was 1300 ± 100 nM in assay [1] (Homo sapiens, K562, MTT, 24 hours); 900 ± 200 nM in assay [2] (Homo sapiens, THP-1, MTT, 24 hours); 1200 nM in assay [3] (average over the six carcinoma cell lines, read-out: Ave IC50); below 2000 nM in assay [3] (statement for all experimental carcinoma cell lines, read-out: IC50 values against human carcinoma cell lines); 600 ± 100 nM in assay [4] (Homo sapiens, HepG2, MTT, 24 hours); 1400 ± 100 nM in assay [5] (Homo sapiens, SGC-7901, MTT, 24 hours). Further, the IC50 in assay [6] is 15200 ± 600 nM; in assay [7] (Homo sapiens, A549, MTT, 24 hours), 1400 ± 200 nM. In addition, the “K562 SI” value in assay [1] (setting [8]) is on record as 11.8. The “THP-1 SI” value in assay [2] (setting [8]) is listed as 17.0. Further, the “Ave SI” value in assay [3] (average over the six carcinoma cell lines) is on record as 14.1. In addition, the “HePG2 SI” value in assay [4] (setting [8]) is on record as 24.5. In addition, the “SGC7901 SI” value in assay [5] (setting [8]) stood at 11.1. Besides, the “expression level of Bax” value with Bax is “up-regulate the expression level of Bax”. In addition, the “A549 SI” value in assay [7] (setting [8]) amounted to 10.7.

Source of the values: publication PMC6327999, “Hydroxyl-substituted double Schiff-base condensed 4-piperidone/cyclohexanones as potential anticancer agents with biological evaluation” (Journal of Enzyme Inhibition and Medicinal Chemistry, 2019).
